Source: patent US20240140986A1, “SYNTHETIC URSOLIC ACID DERIVATIVES AND METHODS OF USE THEREOF” (REATA PHARMACEUTICALS, INC., priority 2021, published 2024)
Like-named read-outs stand apart in the source and are kept apart here.

Key:
[1] = tested on: Nrf2 / ARE-dependent luciferase in AREc32 reporter cell line; test: AREc32 luciferase reporter activation (Nrf2 induction); type: cell-based, human; conditions: for EC (2-fold): Homo sapiens, Arec32; for Relative Avg AREc32 EC2X Relative to RTA402 (fold): ratio to RTA402
Method: Effect on Ludferase Reporter Activation. Nrf2 is a transcription factor that binds to the antioxidant response element (ARE) sequence in the promoter regions of its target genes. AREc32 reporter cell line (derived from human breast carcinoma MCF7 cells) was obtained was from CXR Bioscience Limited (Dundee, UK) and cultured in DMEM (low glucose) supplemented with 10% FBS, 1% penicillin/streptomycin, and 0.8 mg/ml Geneticin (G418). This cell line is stably transfected with a luciferase reporter gene under the transcriptional control of eight copies of the rat GSTA2 ARE sequence (5′-GTGACAAAGCA-3′) (Wang et al., 2006). Expression of Firefly luciferase from this reporter plasmid is controlled by binding of Nrf2 to these ARE sequences. Measurement of ARE-dependent luciferase activity allows quantitative assessment of Nrf2 induction. AREc32 cell line has previously been used in studies characterizing different Nrf2 activators (Dinkova-Kostova & Wang, 2011; Roubalová et al., 2016; Roubalová et al, 2017; Wu et al, 2012).
The effect of several compounds disclosed herein on luciferase reporter activation was assessed in the AREc32 reporter cell line (see Table 10 and Table 11). This cell line is derived from human breast carcinoma MCF-7 cells and is stably transfected with a luciferase reporter gene under the transcriptional control of eight copies of the antioxidant response element from the rat Gsta2 gene, an Nrf2 target gene (Frilling et al., 1990). AREc32 cells were plated in black 96-well plates in 200 μL media at 20,000 cells per well. Twenty-four hours after plating, cells were treated with vehicle (DMSO) or test compounds at concentrations ranging from 0.03 to 1000 nM for nineteen hours. Media was removed and 100 μL of 1:1 mixture of the One-Glo Luciferase assay reagent and culture medium was added to each well. After incubation for 5 min at room temperature, the luminescence signal was measured on a PHERAstar plate reader. The EC2X value was determined using Excel and GraphPad Prism software. The fold increase in luminescence signal for cells treated with each concentration of compound relative to cells treated with vehicle was determined and a dose-response curve was generated. The dose-response curve was fit using nonlinear regression analysis and used to extrapolate the EC2X value. The EC2X value is defined as the concentration of test compound required to increase the luminescence signal 2-fold above levels in vehicle-treated samples.

[2] = tested on: IFNγ-induced NO production in RAW 264.7 cells; test: Nitric Oxide Suppression Assay (IFNγ-induced NO, Griess nitrite readout); type: cell-based, mouse; conditions: for IC50: Mus musculus; for Avg NO IC50 Relative to RTA402 (fold): Table 2, ratio to RTA402
Method: Tissue Culture: RAW 264.7, a mouse macrophage cell line, was obtained from American Type Culture Collection (Manassas VA) and maintained in the log phase of growth in Roswell Park Memorial Institute Medium 1640 (RPMI 1640) supplemented with 10% heat inactivated fetal bovine serum and 1% penicillin-streptomycin. Cells were cultured and maintained in a humidified incubator at 37° C. under 5% C02. Cells were sub-cultured every 2-4 days. All cell culture supplies were obtained from Life Technologies (Grand Island, NY) and VWR (Radnor, PA).
Nitric Oxide Suppression Assay. RAW 264.7 cells were plated 1 day in advance of experimental treatments at a concentration of 30,000 cells per well onto Falcon-96 well clear bottom plates (Corning, NY) in a total volume of 200 μL per well using RPMI 1640 supplemented with 0.5% fetal bovine serum and 1% penicillin-streptomycin. The next day, cells were pretreated with compounds serially diluted from 1000×stocks. All compounds were dissolved in dimethyl sulfoxide (DMSO) usually at 10 mM stock solutions. Compounds were subsequently diluted in DMSO and RPMI 1640. Each well received a final concentration of 0.1% DMSO. Cells were pretreated for 2 hours and incubation at 37° C., followed by treatment with 20 ng/mL of interferon gamma (R&D Systems, Minneapolis, MN) per well for 24 hours. The next day, a nitrite standard was serially diluted from 100 μM to 1.6 μM in RPMI 1640. Afterwards, 50 μL of cell culture supernatant was transferred from each well into a new Falcon-96 well clear bottom plate. Nitrite was measured as surrogate for nitric oxide using Promega's Griess Detection Kit #G2930 (Madison, WI) which involves the addition of 50 μL of the provided sulfanilamide solution to each well of the transferred cell culture supernatant and standards, followed by a 10-minute incubation at room temperature. Next, 50 μL of the provided N-1-napthylethylenediamine dihydrochloride (NED) solution was added to the sulfanilamide reaction and incubated for 10 minutes at room temperature in the dark. Afterwards, air bubbles were removed using ethanol vapor and absorbance was measured using a Spectramax M2e plate reader with a wavelength set to 525 nm. Viability was assessed using WST-1 cell proliferation reagent from Roche (Basel, Switzerland). After media was removed for the Nitric Oxide suppression assay, 15 μL of WST-1 reagent was added to each well of cells. Plates were briefly mixed on an orbital shaker and the cells were incubated at 37° C. for 30-90 minutes. Absorbance was measured using a Spectramax M2e plate reader with wavelengths set to 440 nm and 700 nm.
For the ability of compounds to suppress the increase in nitric oxide release caused by interferon gamma, the absolute amount of nitrite that was produced in each well was extrapolated from the nitrite standards using a linear regression fit. All values were then normalized to the DMSO-interferon gamma treated wells and plotted as percent nitric oxide. IC50 values were calculated using Excel and/or GraphPad Prism (San Diego, CA).

[3] = Table 2, concentration increasing luminescence 2-fold above vehicle, 19 h treatment, read-out: Avg AREc32 EC2X (nM) (Mean ± SD)
[4] = RAW264.7, Table 2, RAW 264.7 cells, 2 h pretreatment, 20 ng/mL interferon gamma 24 h, read-out: Avg NO IC50 (nM) (Mean ± SD)
[5] = Table 3, ursolic acid derivatives, read-out: Avg ARE EC-2X (nM) (Mean ± SD)
[6] = RAW264.7, Table 3, ursolic acid derivatives, read-out: Avg NO IC50 (nM) (Mean ± SD)
[7] = Table 3, oleanolic acid derivative analogs, read-out: Avg ARE EC-2X
[8] = RAW264.7, Table 3, oleanolic acid derivative analogs, read-out: Avg NO IC50

| IC50 [2, 4] [nM] | Avg NO IC50 Relative to RTA402 (fold) [2] [fold] | IC50 [2, 6] [nM] | Structure (SMILES) | EC (2-fold) [1, 3] [nM] | Relative Avg AREc32 EC2X Relative to RTA402 (fold) ([1]; Table 2) | EC (2-fold) [1, 5] [nM] | EC (2-fold) [1, 7] [nM] | IC50 [2, 8] [nM] |
| --- | --- | --- | --- | --- | --- | --- | --- | --- |
| 32.6 ± 2.2 | 8.4 ± 2.7 | – | C[C@@H]1[C@H]2[C@H]3C(=O)C=C4[C@@]5(C)C=C(C#N)C(=O)C(C)(C)[C@@H]5CC[C@@]4(C)[C@]3(C)CC[C@@]2(Cn2cccn2)CC[C@H]1C [Compound T46] | 24.1 ± 6.7 | 2.06 ± 0.26 | – | – | – |
| 7.24 ± 0.77 | 2.70 ± 0.28 | – | C[C@@H]1[C@H]2[C@H]3C(=O)C=C4[C@@]5(C)C=C(C#N)C(=O)C(C)(C)[C@@H]5CC[C@@]4(C)[C@]3(C)CC[C@@]2(O)CC[C@H]1C [Compound T68] | 7.56 ± 0.77 | 0.575 ± 0.141 | – | – | – |
| 17.7 ± 6.9 | 7.07 ± 1.53 | – | CC(=N)NOC(=O)[C@]12CC[C@@H](C)[C@H](C)[C@H]1[C@H]1C(=O)C=C3[C@@]4(C)C=C(C#N)C(=O)C(C)(C)[C@@H]4CC[C@@]3(C)[C@]1(C)CC2 [Compound T107] | 12.9 ± 1.5 | 1.17 ± 0.25 | – | – | – |
| 6.42 ± 1.07 | 1.84 ± 0.45 | 6.42 ± 1.07 | C[C@@H]1[C@H]2[C@H]3C(=O)C=C4[C@@]5(C)C=C(C#N)C(=O)C(C)(C)[C@@H]5CC[C@@]4(C)[C@]3(C)CC[C@@]2(CN2NCCC2=O)CC[C@H]1C [Compound T54] | 4.92 ± 1.14 | 0.403 ± 0.103 | 4.92 ± 1.14 | – | – |
| – | – | – | [2H]C([2H])([2H])C(=O)NC[C@]12CCC(C)(C)C[C@H]1[C@H]1C(=O)C=C3[C@@]4(C)C=C(C#N)C(=O)C(C)(C)[C@@H]4CC[C@@]3(C)[C@]1(C)CC2 [CC24, reference compound] | – | – | – | 2.96 | 0.5 |
| – | – | – | CC1(C)CC[C@]2(CN3CCC3=O)CC[C@]3(C)[C@H](C(=O)C=C4[C@@]5(C)C=C(C#N)C(=O)C(C)(C)[C@@H]5CC[C@]43C)[C@@H]2C1 [CC14, reference compound] | – | – | – | 5.24 | 1.1 |
| – | – | – | CC1(C)CC[C@]2(CN3CCC3)CC[C@]3(C)[C@H](C(=O)C=C4[C@@]5(C)C=C(C#N)C(=O)C(C)(C)[C@@H]5CC[C@]43C)[C@@H]2C1 [CC55, reference compound] | – | – | – | 22 | – |
| – | – | – | CC1(C)CC[C@]2(CNC(=O)OC(C)(C)C)CC[C@]3(C)[C@H](C(=O)C=C4[C@@]5(C)C=C(C#N)C(=O)C(C)(C)[C@@H]5CC[C@]43C)[C@@H]2C1 [CC20, reference compound] | – | – | – | 21.1 | 5 |
| – | – | – | CC(=O)N(C)C[C@]12CCC(C)(C)C[C@H]1[C@H]1C(=O)C=C3[C@@]4(C)C=C(C#N)C(=O)C(C)(C)[C@@H]4CC[C@@]3(C)[C@]1(C)CC2 [CC35, reference compound] | – | – | – | 6.81 | 0.8 |
| 15 ± 3.7 | 7.63 ± 2.99 | 15 ± 3.7 | C[C@@H]1[C@H]2[C@H]3C(=O)C=C4[C@@]5(C)C=C(C#N)C(=O)C(C)(C)[C@@H]5CC[C@@]4(C)[C@]3(C)CC[C@@]2(N)CC[C@H]1C [Compound T16] | 20.5 ± 6 | 1.61 ± 0.084 | 20.5 ± 6 | – | – |
| 5.12 ± 2.22 | 1.71 ± 0.70 | 5.12 ± 2.22 | CNC(=O)NC[C@]12CC[C@@H](C)[C@H](C)[C@H]1[C@H]1C(=O)C=C3[C@@]4(C)C=C(C#N)C(=O)C(C)(C)[C@@H]4CC[C@@]3(C)[C@]1(C)CC2 [Compound T26] | 2.23 ± 0.29 | 0.177 ± 0.020 | 2.23 ± 0.29 | – | – |
| 4.33 ± 1.45 | 2.10 ± 0.49 | – | C[C@@H]1[C@H]2[C@H]3C(=O)C=C4[C@@]5(C)C=C(C#N)C(=O)C(C)(C)[C@@H]5CC[C@@]4(C)[C@]3(C)CC[C@@]2(c2nc(CF)no2)CC[C@H]1C [Compound T11] | 8.74 ± 2.61 | 0.685 ± 0.050 | – | – | – |
| 102 ± 15 | 67.7 ± 3.62 | – | COC(=O)[C@]12CC[C@@H](C)[C@H](C)[C@H]1[C@H]1C(=O)C[C@@H]3[C@@]4(C)C=C(C#N)C(=O)C(C)(C)[C@@H]4CC[C@@]3(C)[C@]1(C)CC2 [Compound T101] | 142 ± 29 | 15.8 ± 2.1 | – | – | – |
| 13.3 ± 3.7 | 7.08 ± 3.49 | – | Cc1noc(C[C@]23CC[C@@H](C)[C@H](C)[C@H]2[C@H]2C(=O)C=C4[C@@]5(C)C=C(C#N)C(=O)C(C)(C)[C@@H]5CC[C@@]4(C)[C@]2(C)CC3)n1 [Compound T96] | 10.6 ± 0.7 | 1.32 ± 0.21 | – | – | – |
| 15.9 ± 7 | 5.93 ± 3.56 | – | CC(=O)OCCNC[C@]12CC[C@@H](C)[C@H](C)[C@H]1[C@H]1C(=O)C=C3[C@@]4(C)C=C(C#N)C(=O)C(C)(C)[C@@H]4CC[C@@]3(C)[C@]1(C)CC2 [Compound T43] | 10.1 ± 1 | 0.8 ± 0.1 | – | – | – |
| – | – | – | CC1(C)CC[C@]2(N3CCCC3=O)CC[C@]3(C)[C@H](C(=O)C=C4[C@@]5(C)C=C(C#N)C(=O)C(C)(C)[C@@H]5CC[C@]43C)[C@@H]2C1 [CC58, reference compound] | – | – | – | 37.9 | – |
| – | – | – | CC1(C)CC[C@]2(c3nc(C4CC4)no3)CC[C@]3(C)[C@H](C(=O)C=C4[C@@]5(C)C=C(C#N)C(=O)C(C)(C)[C@@H]5CC[C@]43C)[C@@H]2C1 [CC2, reference compound] | – | – | – | 43.7 | – |
| – | – | – | CNC(=O)N(C)C[C@]12CCC(C)(C)C[C@H]1[C@H]1C(=O)C=C3[C@@]4(C)C=C(C#N)C(=O)C(C)(C)[C@@H]4CC[C@@]3(C)[C@]1(C)CC2 [CC36, reference compound] | – | – | – | 7.23 | – |
| – | – | – | Cc1cn(C[C@]23CCC(C)(C)C[C@H]2[C@H]2C(=O)C=C4[C@@]5(C)C=C(C#N)C(=O)C(C)(C)[C@@H]5CC[C@@]4(C)[C@]2(C)CC3)nn1 [CC49, reference compound] | – | – | – | 13.8 | – |
